Measurements as given in ChEMBL document CHEMBL5120842, “Application of partially aromatic ortho-quionone-methides for the synthesis of novel naphthoxazines with improved antibacterial activity” (2022).
≈ marks a conversion by molar mass, not a printed value.

Assays:
Assay type in all cases: functional
Staphylococcus aureus [1] = experiment: (§1) Antibacterial activity against Gram-positive methicillin-susceptible Staphylococcus aureus ATCC 25923 assessed as inhibition of efflux pump by measuring intracellular accumulation of ethidium bromide at 50 uM and measured every minute for 1 hr by fluorescence based microtiter plate reader analysis
Escherichia coli [2] = experiment: (§2) Antibacterial activity against Gram-negative Escherichia coli K-12 AG100 expressing AcrAB-TolC efflux pump assessed as inhibition of efflux pump by measuring intracellular accumulation of ethidium bromide at 100 uM and measured every minute for 1 hr by fluorescence based microtiter plate reader analysis
Staphylococcus aureus [3] = experiment: Inhibition of efflux pump in Gram-positive methicillin and oxacillin-resistant Staphylococcus aureus ATCC 43300 assessed as relative fluorescence index using ethidium bromide as substrate at 50 uM and measured after 1 hr by fluorescence based microtiter plate reader analysis
Escherichia coli [4] = experiment: Antibacterial activity against Gram-negative Escherichia coli K-12 AG100 expressing AcrAB-TolC efflux pump assessed as inhibition of bacterial growth by CLSI protocol based assay
Staphylococcus aureus [5] = experiment: Inhibition of efflux pump in Gram-positive methicillin and oxacillin-resistant Staphylococcus aureus ATCC 43300 assessed as relative fluorescence index using ethidium bromide as substrate at 100 uM and measured after 1 hr by fluorescence based microtiter plate reader analysis
Staphylococcus aureus [6] = experiment: Antibacterial activity against Gram-positive methicillin-susceptible Staphylococcus aureus ATCC 25923 assessed as inhibition of bacterial growth by CLSI protocol based assay
Escherichia coli [7] = experiment: Inhibition of efflux pump in Gram-negative Escherichia coli K-12 AG100 expressing AcrAB-TolC efflux pump assessed as relative fluorescence index using ethidium bromide as substrate at 50 uM and measured after 1 hr by fluorescence based microtiter plate reader analysis
Escherichia coli [8] = experiment: as §2, with “at 50” for “at 100”
Staphylococcus aureus [9] = experiment: Inhibition of efflux pump in Gram-positive methicillin-susceptible Staphylococcus aureus ATCC 25923 assessed as relative fluorescence index using ethidium bromide as substrate at 100 uM and measured after 1 hr by fluorescence based microtiter plate reader analysis
Staphylococcus aureus [10] = experiment: (§3) Antibacterial activity against Gram-positive methicillin-susceptible Staphylococcus aureus ATCC 25923 assessed as inhibition of efflux pump by measuring intracellular accumulation of ethidium bromide at 100 uM and measured every minute for 1 hr by fluorescence based microtiter plate reader analysis
Staphylococcus aureus [11] = experiment: as §3, with “methicillin and oxacillin-resistant” for “methicillin-susceptible”, “43300” for “25923”
Escherichia coli [12] = experiment: Inhibition of efflux pump in Gram-negative Escherichia coli K-12 AG100 expressing AcrAB-TolC efflux pump assessed as relative fluorescence index using ethidium bromide as substrate at 100 uM and measured after 1 hr by fluorescence based microtiter plate reader analysis
Staphylococcus aureus [13] = experiment: Inhibition of efflux pump in Gram-positive methicillin-susceptible Staphylococcus aureus ATCC 25923 assessed as relative fluorescence index using ethidium bromide as substrate at 50 uM and measured after 1 hr by fluorescence based microtiter plate reader analysis
Staphylococcus aureus [14] = experiment: as §1, with “methicillin and oxacillin-resistant” for “methicillin-susceptible”, “43300” for “25923”
Staphylococcus aureus [15] = experiment: Antibacterial activity against Gram-positive methicillin and oxacillin-resistant Staphylococcus aureus ATCC 43300 assessed as inhibition of bacterial growth by CLSI protocol based assay
Staphylococcus aureus [16] = experiment: Inhibition of efflux pump in Gram-positive methicillin-susceptible Staphylococcus aureus ATCC 25923 assessed as relative fluorescence index using ethidium bromide as substrate at 3.125 uM and measured after 1 hr by fluorescence based microtiter plate reader analysis
Staphylococcus aureus [17] = experiment: as §1, with “3.125” for “50”
Staphylococcus aureus [18] = experiment: as §1, with “methicillin and oxacillin-resistant” for “methicillin-susceptible”, “43300” for “25923”, “25” for “50”
Staphylococcus aureus [19] = experiment: Antibacterial activity against Gram-positive methicillin-susceptible Staphylococcus aureus ATCC 25923 assessed as inhibition of efflux pump by measuring intracellular accumulation of ethidium bromide at 25 uM and measured every minute for 1 hr by fluorescence based microtiter plate reader analysis
Staphylococcus aureus [20] = experiment: Inhibition of efflux pump in Gram-positive methicillin-susceptible Staphylococcus aureus ATCC 25923 assessed as relative fluorescence index using ethidium bromide as substrate at 25 uM and measured after 1 hr by fluorescence based microtiter plate reader analysis
Staphylococcus aureus [21] = experiment: Inhibition of efflux pump in Gram-positive methicillin and oxacillin-resistant Staphylococcus aureus ATCC 43300 assessed as relative fluorescence index using ethidium bromide as substrate at 25 uM and measured after 1 hr by fluorescence based microtiter plate reader analysis

Row | SMILES | Activity (Staphylococcus aureus [1]) | Activity (Escherichia coli [2]) | Activity (Staphylococcus aureus [3]) | MIC (Escherichia coli [4]) [µM] | Activity (Staphylococcus aureus [5]) | MIC (Staphylococcus aureus [6]) [µM] | Activity (Escherichia coli [7]) | Activity (Escherichia coli [8]) | Activity (Staphylococcus aureus [9]) | Activity (Staphylococcus aureus [10]) | Activity (Staphylococcus aureus [11]) | Activity (Escherichia coli [12]) | Activity (Staphylococcus aureus [13]) | Activity (Staphylococcus aureus [14]) | MIC (Staphylococcus aureus [15]) [µM] | also measured
1 | CCOC(=O)C(c1ccc2ccccc2c1O)N1CCOCC1 (centres undefined) | 11677.33 | 6561.67 | -0.28 | > 100 | -0.76 | > 100 | -0.78 | 7485.67 | -0.72 | 7624.33 | 18886 | -0.81 | -0.58 | 56126.33 | > 100 | –
2 | CCOC(=O)C(c1c(O)ccc2ccccc12)N1CCOCC1 (centres undefined) | 58168.67 | 36685.33 | 0.12 | > 100 | 0.08 | > 100 | 0.29 | 44310 | 0.87 | 51721 | 84280 | 0.07 | 1.1 | 87762.67 | > 100 | –
3 | CCOC(=O)[C@H]1c2c(ccc3ccccc23)O[C@@H]2c3ccsc3CCN21 (relative stereo) | 29306 | 34921.33 | 0.13 | > 100 | 0.14 | > 100 | 0 | 34078.33 | 0.22 | 33816.67 | 88655.67 | 0.02 | 0.06 | 88184.67 | > 100 | –
4 | CCOC(=O)[C@H]1c2c(ccc3ccccc23)O[C@@H]2c3ccccc3CCN21 (relative stereo) | 31759 | 36732 | 0.19 | > 100 | 0.2 | > 100 | 0.05 | 35837.67 | 0.13 | 31231.67 | 93822.67 | 0.07 | 0.15 | 92734 | > 100 | –
5 | CCOC(=O)[C@H]1c2c(ccc3ccccc23)O[C@@H]2c3[nH]c4ccccc4c3CCN21 (relative stereo) | 27892.33 | 36337.67 | -0.03 | > 100 | 0 | > 100 | 0.01 | 34706 | 0.05 | 29131.67 | 78009 | 0.06 | 0.01 | 76072 | > 100 | –
6 | CCOC(=O)[C@H]1c2ccc3ccccc3c2O[C@@H]2c3[nH]c4ccccc4c3CCN21 (relative stereo) | – | 32220.33 | 0.09 | > 100 | 0.16 | 6.25 (≈ 2.49 µg/mL) | -0.02 | 33567.67 | – | – | 90479.33 | -0.06 | – | 84683 | > 100 | Activity (Staphylococcus aureus [16]): 0.26; Activity (Staphylococcus aureus [17]): 34824.33
7 | CCOC(=O)[C@H]1c2ccc3ccccc3c2O[C@@H]2c3ccsc3CCN21 (relative stereo) | 36826.67 | 35945.67 | 0.3 | > 100 | 0.33 | > 100 | 0.01 | 34561.67 | 1.82 | 77859.67 | 103410 | 0.05 | 0.33 | 101450.33 | > 100 | –
8 | CCOC(=O)[C@H]1c2ccc3ccccc3c2O[C@@H]2c3ccccc3CCN21 (relative stereo) | 44414.33 | 36999.33 | 0.43 | > 100 | 0.46 | > 100 | 0.09 | 37156.33 | 0.55 | 42864 | 114226 | 0.08 | 0.61 | 111300.67 | > 100 | –
9 | N#CC(C#N)=NNc1cccc(Cl)c1 [CARBONYL CYANIDE M-CHLOROPHENYLHYDRAZONE] | – | – | – | – | – | – | 1.12 | 72448.33 | – | – | – | – | – | – | – | –
10 | COC(=O)[C@H]1[C@H]2C[C@@H]3c4[nH]c5cc(OC)ccc5c4CCN3C[C@H]2C[C@@H](OC(=O)c2cc(OC)c(OC)c(OC)c2)[C@@H]1OC [RESERPINE] | – | – | – | – | – | – | – | – | – | – | – | – | – | – | – | Activity (Staphylococcus aureus [18]): 101532.7; Activity (Staphylococcus aureus [19]): 54056; Activity (Staphylococcus aureus [20]): 0.96; Activity (Staphylococcus aureus [21]): 0.3
